{"source": "patent US5567692A", "about": "“9-[(substituted glycyl) amido)]-6-demethyl-6-deoxytetracyclines” (priority 1995, dated 1996)", "key": {"[1]": {"test_system": "S. aureus UBMS 88-5 Tet M", "test": "microbe, parasite or virus in culture", "format": "cell-based", "conditions": "Staphylococcus aureus, UBMS885TETM, 18 h"}, "[2]": {"test_system": "E. coli UBMS 89-2 Tet sens.", "test": "MIC, agar dilution", "format": "cell-based", "conditions": "E. coli UBMS 89-2 Tet sens."}, "S. aureus ATCC 29213": {"test_system": "S. aureus ATCC 29213", "test": "MIC, agar dilution", "format": "cell-based", "conditions": "S. aureus ATCC 29213; dihydrochloride"}, "Klebsiella pneumoniae": {"test_system": "Klebsiella pneumoniae", "test": "MIC range, recent clinical and veterinary isolates", "format": "cell-based", "conditions": "18 h, [10] isolates"}, "E. coli BAJ9003 IMP MUT": {"test_system": "E. coli BAJ9003 IMP MUT", "test": "microbe, parasite or virus in culture", "format": "cell-based", "conditions": "E. coli BAJ9003 IMP MUT"}, "the ribosome": {"test_system": "the ribosome", "test": "Reversibility of binding: bacterial growth after washing of the organism", "format": "cell-based", "conditions": "bacterial growth resumes when the compound is removed by washing", "source_text": "Therefore, the ability of 9-[(N,N-dimethylglycyl)amido]-6-demethyl-6-deoxytetracycline to inhibit bacterial growth appears to be a direct consequence of its ability to inhibit protein synthesis at the ribosome level."}, "Clostridium spp.": {"test_system": "Clostridium spp.", "test": "MIC range, recent clinical and veterinary isolates", "format": "cell-based", "conditions": "18 h, [9] isolates"}, "[3]": {"test_system": "Staphylococcus aureus, (methicillin-susceptible)", "test": "MIC range, recent clinical and veterinary isolates", "format": "cell-based", "conditions": "Staphylococcus aureus, 18 h, read-out: MIC Range"}, "[4]": {"test_system": "Pasturella multocida (Veterinary)", "test": "MIC range, recent clinical and veterinary isolates", "format": "cell-based", "conditions": "18 h, [17] isolates"}, "[5]": {"test_system": "E. coli MC 4100 TNIOC Tet B", "test": "microbe, parasite or virus in culture", "format": "cell-based", "conditions": "E. coli MC 4100 TNIOC Tet B"}, "Bacteroides fragilis": {"test_system": "Bacteroides fragilis", "test": "MIC range, recent clinical and veterinary isolates", "format": "cell-based", "conditions": "18 h, [11] isolates"}, "S. aureus SMITH (MP)": {"test_system": "S. aureus SMITH (MP)", "test": "MIC, agar dilution", "format": "cell-based", "conditions": "Staphylococcus aureus, 18 h; S. aureus SMITH (MP); read-out: MIC"}, "[6]": {"test_system": "Ps. aeruginosa ATCC 27853", "test": "MIC, agar dilution", "format": "cell-based", "conditions": "Ps. aeruginosa ATCC 27853; dihydrochloride"}, "Enterobacter aerogenes": {"test_system": "Enterobacter aerogenes", "test": "MIC range, recent clinical and veterinary isolates", "format": "cell-based", "conditions": "Klebsiella aerogenes, 18 h; Enterobacter aerogenes, [10] isolates; read-out: MIC Range"}, "E. coli J3272 Tet D": {"test_system": "E. coli J3272 Tet D", "test": "microbe, parasite or virus in culture", "format": "cell-based", "conditions": "dihydrochloride"}, "[7]": {"test_system": "S. aureus UBMS 90-1 Tet M", "test": "microbe, parasite or virus in culture", "format": "cell-based", "conditions": "S. aureus UBMS 90-1 Tet M; dihydrochloride"}, "Morganella morganii": {"test_system": "Morganella morganii", "test": "MIC range, recent clinical and veterinary isolates", "format": "cell-based", "conditions": "18 h, [16] isolates"}, "[8]": {"test_system": "Salmonella choleraesuis (Veterinary)", "test": "MIC range, recent clinical and veterinary isolates", "format": "cell-based", "conditions": "Salmonella enterica, 18 h, [15] isolates"}, "[9]": {"test_system": "Staphylococcus aureus strain Smith (tetracycline sensitive)", "test": "Acute lethal infection in mice, S. aureus Smith", "format": "in vivo", "conditions": "mice, S. aureus Smith (Sens), 7 day survival, dihydrochloride, 10080 min"}, "Streptococcus agalactiae": {"test_system": "Streptococcus agalactiae", "test": "MIC range, recent clinical and veterinary isolates", "format": "cell-based", "conditions": "18 h, read-out: MIC Range"}, "Citrobacter diversus": {"test_system": "Citrobacter diversus", "test": "MIC range, recent clinical and veterinary isolates", "format": "cell-based", "conditions": "Citrobacter koseri, 18 h; Citrobacter diversus, [10] isolates; read-out: MIC Range"}, "Enterococcus faecalis": {"test_system": "Enterococcus faecalis", "test": "MIC range, recent clinical and veterinary isolates", "format": "cell-based", "conditions": "18 h, read-out: MIC Range"}, "S. aureus IVES 1983": {"test_system": "S. aureus IVES 1983", "test": "MIC, agar dilution", "format": "cell-based", "conditions": "S. aureus IVES 1983; dihydrochloride"}, "S. aureus ROSE (MP)": {"test_system": "S. aureus ROSE (MP)", "test": "MIC, agar dilution", "format": "cell-based", "conditions": "Staphylococcus aureus, 18 h, read-out: MIC"}, "Enterobacter cloacae": {"test_system": "Enterobacter cloacae", "test": "MIC range, recent clinical and veterinary isolates", "format": "cell-based", "conditions": "18 h, [10] isolates, read-out: MIC Range"}, "E. coli J2175": {"test_system": "E. coli J2175", "test": "MIC, agar dilution", "format": "cell-based"}, "[10]": {"test_system": "Bordetella bronchiseptica (Veterinary)", "test": "MIC range, recent clinical and veterinary isolates", "format": "cell-based", "conditions": "18 h; Bordetella bronchiseptica (Veterinary), [10] isolates; read-out: MIC Range"}, "Anaerobic Gram(+)Cocci": {"test_system": "Anaerobic Gram(+)Cocci", "test": "MIC range, recent clinical and veterinary isolates", "format": "cell-based", "conditions": "18 h; Anaerobic Gram(+)Cocci, [15] isolates; read-out: MIC Range"}, "E. coli PRP1 Tet A": {"test_system": "E. coli PRP1 Tet A", "test": "microbe, parasite or virus in culture", "format": "cell-based", "conditions": "dihydrochloride"}, "S. aureus UBMS 90-3": {"test_system": "S. aureus UBMS 90-3", "test": "MIC, agar dilution", "format": "cell-based", "conditions": "Staphylococcus aureus, UBMS903, 18 h"}, "[11]": {"test_system": "S. aureus UBMS 90-2 Tet M", "test": "microbe, parasite or virus in culture", "format": "cell-based", "conditions": "S. aureus UBMS 90-2 Tet M; dihydrochloride"}, "Bacteroides spp.": {"test_system": "Bacteroides spp.", "test": "MIC range, recent clinical and veterinary isolates", "format": "cell-based", "conditions": "Bacteroides, 18 h, read-out: MIC Range"}, "Clostridium difficile": {"test_system": "Clostridium difficile", "test": "MIC range, recent clinical and veterinary isolates", "format": "cell-based", "conditions": "Clostridioides difficile, 18 h; Clostridium difficile, [12] isolates; read-out: MIC Range"}, "[12]": {"test_system": "Escherichia coli (Veterinary)", "test": "MIC range, recent clinical and veterinary isolates", "format": "cell-based", "conditions": "18 h, [15] isolates"}, "E. coli UBMS 88-1 Tet B": {"test_system": "E. coli UBMS 88-1 Tet B", "test": "microbe, parasite or virus in culture", "format": "cell-based", "conditions": "E. coli UBMS 88-1 Tet B"}, "Neisseria gonorrhoeae": {"test_system": "Neisseria gonorrhoeae", "test": "MIC range, recent clinical and veterinary isolates", "format": "cell-based", "conditions": "18 h, [14] isolates"}, "Xanthamonas maltophilia": {"test_system": "Xanthamonas maltophilia", "test": "MIC range, recent clinical and veterinary isolates", "format": "cell-based", "conditions": "18 h, read-out: MIC Range"}, "Shigella spp.": {"test_system": "Shigella spp.", "test": "MIC range, recent clinical and veterinary isolates", "format": "cell-based", "conditions": "18 h, [14] isolates"}, "Proteus mirabilis": {"test_system": "Proteus mirabilis", "test": "MIC range, recent clinical and veterinary isolates", "format": "cell-based", "conditions": "18 h, read-out: MIC Range"}, "Enterococcus 12201": {"test_system": "Enterococcus 12201", "test": "MIC, agar dilution", "format": "cell-based", "conditions": "Enterococcus 12201"}}, "note": "Structures can show the parent of a compound that is named as a salt."}
{"smiles": "CN(C)CC(=O)Nc1ccc2c(c1O)C(=O)C1=C(O)[C@]3(O)C(=O)C(C(N)=O)=C(O)[C@@H](N(C)C)C3CC1C2", "note": "(stereo partly drawn) [CC, [4S-(4alpha,12aalpha)]-4-(Dimethylamino)-9-[[(dimethylamino)acetyl]amino]-1,4,4a,5,5a,6,11,12a-octahydro-3,10,12,12a-tetrahydroxy-1,11-dioxo-2-naphthacenecarboxamide dihydrochloride]", "values": [{"measurement": "MIC", "setting": "[1]", "value": 0.03, "unit": "µg/mL"}, {"measurement": "MIC", "setting": "[2]", "value": 0.25, "unit": "µg/mL"}, {"measurement": "MIC", "setting": "S. aureus ATCC 29213", "value": "< 0.015", "unit": "µg/mL"}, {"measurement": "MIC", "setting": "Klebsiella pneumoniae", "value": "0.25 to 4", "unit": "µg/mL"}, {"measurement": "MIC", "setting": "E. coli BAJ9003 IMP MUT", "value": "no growth"}, {"measurement": "binding to its target (the ribosome), reversibility", "setting": "the ribosome", "value": "binds reversibly"}, {"measurement": "MIC", "setting": "Clostridium spp.", "value": "0.03 to 0.12", "unit": "µg/mL"}, {"measurement": "MIC", "setting": "[3]", "value": "0.06 to 0.25", "unit": "µg/mL"}, {"measurement": "MIC", "setting": "[4]", "value": "0.03 to 0.25", "unit": "µg/mL"}, {"measurement": "MIC", "setting": "[5]", "value": 0.25, "unit": "µg/mL"}, {"measurement": "MIC", "setting": "Bacteroides fragilis", "value": "0.25 to 1", "unit": "µg/mL"}, {"measurement": "MIC", "setting": "S. aureus SMITH (MP)", "value": 0.03, "unit": "µg/mL"}, {"measurement": "MIC", "setting": "[6]", "value": 4, "unit": "µg/mL"}, {"measurement": "MIC", "setting": "Enterobacter aerogenes", "value": "0.25 to 1", "unit": "µg/mL"}, {"measurement": "MIC", "setting": "E. coli J3272 Tet D", "value": 0.03, "unit": "µg/mL"}, {"measurement": "MIC", "setting": "[7]", "value": 0.06, "unit": "µg/mL"}, {"measurement": "MIC", "setting": "Morganella morganii", "value": "0.5 to 1", "unit": "µg/mL"}, {"measurement": "MIC", "setting": "[8]", "value": "0.5 to 8", "unit": "µg/mL"}, {"measurement": "ED50", "setting": "[9]; Intraveneous", "value": 0.46, "unit": "mg/kg"}, {"measurement": "ED50", "setting": "[9]; Oral", "value": "> 8", "unit": "mg/kg"}, {"measurement": "MIC", "setting": "Streptococcus agalactiae", "value": "0.12 to 0.25", "unit": "µg/mL"}, {"measurement": "MIC", "setting": "Citrobacter diversus", "value": "0.25 to 1", "unit": "µg/mL"}, {"measurement": "MIC", "setting": "Enterococcus faecalis", "value": "0.03 to 0.25", "unit": "µg/mL"}, {"measurement": "MIC", "setting": "S. aureus IVES 1983", "value": 0.5, "unit": "µg/mL"}, {"measurement": "MIC", "setting": "S. aureus ROSE (MP)", "value": 1, "unit": "µg/mL"}, {"measurement": "MIC", "setting": "Enterobacter cloacae", "value": "0.5 to 1", "unit": "µg/mL"}, {"measurement": "MIC", "setting": "E. coli J2175", "value": 0.25, "unit": "µg/mL"}, {"measurement": "MIC", "setting": "[10]", "value": "0.06 to 0.12", "unit": "µg/mL"}, {"measurement": "MIC", "setting": "Anaerobic Gram(+)Cocci", "value": "0.015 to 0.12", "unit": "µg/mL"}, {"measurement": "MIC", "setting": "E. coli PRP1 Tet A", "value": 0.5, "unit": "µg/mL"}, {"measurement": "MIC", "setting": "S. aureus UBMS 90-3", "value": 0.03, "unit": "µg/mL"}, {"measurement": "MIC", "setting": "[11]", "value": 0.06, "unit": "µg/mL"}, {"measurement": "MIC", "setting": "Bacteroides spp.", "value": "0.12 to 0.5", "unit": "µg/mL"}, {"measurement": "MIC", "setting": "Clostridium difficile", "value": "0.06 to 0.12", "unit": "µg/mL"}, {"measurement": "MIC", "setting": "[12]", "value": "0.25 to 4", "unit": "µg/mL"}, {"measurement": "MIC", "setting": "E. coli UBMS 88-1 Tet B", "value": 0.25, "unit": "µg/mL"}, {"measurement": "MIC", "setting": "Neisseria gonorrhoeae", "value": "0.5 to 1", "unit": "µg/mL"}, {"measurement": "MIC", "setting": "Xanthamonas maltophilia", "value": "1 to 8", "unit": "µg/mL"}, {"measurement": "MIC", "setting": "Shigella spp.", "value": "0.12 to 0.5", "unit": "µg/mL"}, {"measurement": "MIC", "setting": "Proteus mirabilis", "value": "0.12 to 2", "unit": "µg/mL"}, {"measurement": "MIC", "setting": "Enterococcus 12201", "value": 0.03, "unit": "µg/mL"}]}
